Reference: patent US11202792B2, “CD99 inhibitors and their uses” (GEORGETOWN UNIVERSITY, priority 2016, dated 2021)
Where two headings read alike, the source gives them in different places.

How the values were obtained:
[1] = system: IOR/OS10 OS cells; assay: Cell viability IC50, IOR/OS10; assay type: cell-based; details: Homo sapiens
Description: (§1) The plate was installed into the RTCA system, and the electrical impedance (represented as cell index) was measured every 10 min.
(§2) To investigate the relationship between the level of CD99 expression and drug sensitivity, the endogenous expression of CD99 was determined in a panel of 9 ES and 13 non-ES cell lines. The recombinant purified CD99-ECD protein was used to generate standard curves for immunoquantification of CD99 expression by immunoblotting (FIGS. 6B and 6C).

[2] = system: TC-71, 6647 and RDES ES cells; assay: Cell cycle and cell death analysis by flow cytometry, ES cells; assay type: cell-based, human; details: 48 h; for hypodiploid sub-G1 peak: only in ES cells compared with U-2 OS
Description: For the evaluation of cell cycle, cell cultures were incubated with 10 μmol/L bromodeoxyuridine (BrdU) (Sigma-Aldrich) for 1 h in a CO2 atmosphere at 37° C. Harvested cells were fixed in ice-cold 70% ethanol for 30 min. After DNA denaturation with 2 N HCl for 30 min at room temperature, cells were washed with 0.1 M Na2B4O7, pH 8.5 and processed for indirect immunofluorescence staining, using α-BrdU (BD Biosciences (San Jose, Calif.)) diluted 1:4 as a primary MAb and α-mouse FITC (1:100—Thermo Scientific (Waltham, Mass.)) as a secondary antibody. After treatment with 0.5 mg/ml RNase and staining with 20 μg/ml propidium iodide, cells were and analyzed by flow cytometry (FACSCalibur; Becton Dickinson (Franklin Lakes, N.J.)) for cell cycle evaluation and for assessing cell death by DNA content analysis.

[3] = system: leukemia cell lines MOLT-4 and Jurkat; assay: Cell viability IC50 panel, leukemia cell lines; assay type: cell-based; details: Homo sapiens
Description: as §1
Therefore, two leukemia cell lines, MOLT-4 and Jurkat, were included as positive controls in this experiment.

[4] = system: IOR/OS9 OS cells; assay: Cell viability IC50, IOR/OS9; assay type: cell-based; details: Homo sapiens
Description: as §1, §2

[5] = system: TC-71 and RD-ES cell lines; assay: Dose-dependent cytotoxicity assay in ES cell lines; assay type: cell-based, human; details: Homo sapiens; dose-response at 1, 3, 10 and 30 μmol/L in TC-71 and RD-ES
Description: as §1
The primary screen was based on a direct binding assay using surface plasmon resonance (SPR) technology with purified extracellular domain of CD99 (CD99-ECD) protein that was immobilized on a neutravidin-coated sensor chip. […] A negative control protein was used in order to eliminate non-specific binders. […] Dose-response studies were performed with 2 compounds at 1, 3, 10 and 30 μmol/L concentration in ES cell lines.

[6] = system: SKES-1 ES cells; assay: Cell viability IC50, SKES-1; assay type: cell-based; details: Homo sapiens, SK-ES1
Description: as §1, §2

[7] = system: SAOS-2 OS cells; assay: Cell viability IC50, SAOS-2; assay type: cell-based; details: Homo sapiens
Description: as §1, §2

[8] = system: SKES xenografts; assay: Orthotopic SKES xenograft, i.p. administration; assay type: in vivo, SCID/beige mice; details: for tumor growth: i.p.
Description: All tumor tissues were fixed in 10% neutral buffered formalin for 24 h, dehydrated through a graded series of alcohols and cleared in xylenes prior to embedding in paraffin. Embedded tissues were cut into 5 μm thick sections and stained with hematoxylin and eosin (H&E). Immunohistochemical staining was performed for CD99 and caspase 3 (cleaved). Five micron sections from formalin fixed paraffin embedded tissues were de-paraffinized with xylenes and rehydrated through a graded alcohol series. Heat induced epitope retrieval was performed by immersing the tissue sections at 98° C. for 60 min in 10 mmol/L citrate buffer (pH 6.0). Immunohistochemical staining was performed using a horseradish peroxidase labeled polymer from Agilent (Santa Clara, Calif.) (#K4001, #K4003) according to manufacturer's instructions. Briefly, slides were treated with 3% hydrogen peroxide and 10% normal goat serum for 10 min each, and exposed to primary antibodies for CD99 (Abcam, #ab8855) at a 1:100 dilution and for caspase 3 (cleaved) (Biocare (Pacheco, Calif.), #CP229A) at a 1:90 dilution in Da Vinci Green for one hour and stained on an DAKO Autostainer. Slides were exposed to the appropriate HRP labeled polymer for 30 min and DAB chromogen (Dako (Santa Clara, Calif.) for 5 min. Slides were counterstained with Hematoxylin (Fisher, Harris Modified Hematoxylin), blued in 1% ammonium hydroxide, dehydrated, and mounted with Acrymount. Consecutive sections with the primary antibody omitted were used as negative controls. The sections were evaluated in a blinded fashion by a board certified pathologist.
The antitumor activity of drugs through intraperitoneal (i.p.) administration given once daily was determined. […] The in vivo potencies of drug treatments were evaluated by event-free survival curves, where tumors that reached 1.0 cm^3 in size considered an event.

[9] = system: RH30 rhabdomyosarcoma cells; assay: Cell viability IC50, RH30; assay type: cell-based; details: Homo sapiens; RH30 (RM)
Description: as §1, §2

[10] = 48 h, read-out: average IC50 concentration for leukemia cell lines
[11] = MOLT-4 and Jurkat, read-out: IC50, leukemia cell lines

**Q.** Which IC50 [1] does the source give for `Nc1nc(Cl)nc2c1ncn2[C@H]1C[C@H](O)[C@@H](CO)O1` [cladribine] here?
**A.** 11400 nM

**Q.** What about the cell cycle effect ([2]; ES cells) of the same compound?
**A.** cell cycle arrest in S phase

**Q.** What about the “hypodiploid sub-G1 peak” value [2] of the same compound?
**A.** significant increase

**Q.** What about the IC50 [3, 10] of the same compound?
**A.** 340 ± 30 nM

**Q.** What about the IC50 [3, 11] of the same compound?
**A.** < 1000 nM

**Q.** And the IC50 [4]?
**A.** > 30000 nM

**Q.** And the IC50 [5]?
**A.** < 1000 nM

**Q.** And the IC50 [6]?
**A.** 430 nM

**Q.** What about the IC50 [7] of the same compound?
**A.** > 30000 nM

**Q.** And the tumor growth ([8]; 20 mg/kg both)?
**A.** less effective

**Q.** What about the IC50 [9] of the same compound?
**A.** 3260 nM

**Q.** For `Nc1nc(Cl)nc2c1ncn2[C@@H]1O[C@H](CO)[C@@H](O)[C@@H]1F` [clofarabine], which IC50 [1] is on record?
**A.** 1370 nM

**Q.** And the “hypodiploid sub-G1 peak” value [2]?
**A.** significant increase

**Q.** What about the IC50 [3, 10] of the same compound?
**A.** 180 ± 10 nM

**Q.** And the IC50 [3, 11]?
**A.** < 1000 nM

**Q.** What about the IC50 [4] of the same compound?
**A.** > 10000 nM

**Q.** And the IC50 [5]?
**A.** < 1000 nM

**Q.** And the IC50 [6]?
**A.** 300 nM

**Q.** What about the IC50 [7] of the same compound?
**A.** > 30000 nM

**Q.** And the “mitotic figures per field” value ([8]; H&E, 200-fold magnification)?
**A.** ≤ 3

**Q.** What about the apoptotic cells ([8]; H&E, confirmed by caspase-3 immunohistochemistry) of the same compound?
**A.** significant increase

**Q.** And the event-free survival ([8]; i.p. once daily, 20 mg/kg both, vs vehicle)?
**A.** significantly improved

**Q.** What about the tumor growth ([8]; 20 mg/kg both) of the same compound?
**A.** significant inhibition of tumor growth

**Q.** What about the IC50 [9] of the same compound?
**A.** > 10000 nM
